Usually melting point stands for the temperature, or range, at which the solid turns liquid.

The structures appear in SMILES notation.

With `CC(CCC(O)(Cl)Cl)C1CCC2C3C(O)CC4CC(O)CCC4(C)C3CC(O)C12C` (stereo unspecified), the melting point was 162 to 170 °C.
The result for `CCOC(=O)c1cc(-c2ccc(C)cc2)oc1C` reads 82 to 83 °C; that for `CCCCCCCCCCCCCC(=O)OCc1ccccc1`, 20.5 °C; that for `O=C(O)CCCCCCCCCCCCC1C=CCC1` (stereo unspecified), 68.5 °C.
The compound `N#CN=C(Oc1ccccc1)Oc1ccccc1` registered a melting point of 157 °C.
The result for `Cn1cnc(C(=O)Oc2c(F)c(F)c(F)c(F)c2F)c1` reads 131 to 132 °C; that for `N#CC(Cc1ccc([N+](=O)[O-])cc1)c1ccccc1` (stereo unspecified), 134 °C.
The result for `COc1ccc(C2CC(=O)c3c(O)cc(OC4OC(COC5OC(C)C(O)C(O)C5O)C(O)C(O)C4O)cc3O2)cc1O` (stereo unspecified) reads 262 °C.
The result for `N#Cc1cc2ccccc2c2ccccc12` reads 111 °C; that for `COc1cc2c(cc1OC)CC2`, 91 °C; that for `NC1C2CCC(C2)C1C(=O)O` (stereo unspecified), 275 to 278 °C.
As to `c1ccc(N=Nc2ccc(Nc3ccccc3)cc2)cc1`, the melting point was 90 °C.
The result for `O=C1c2ccccc2CC2CCCCN12` (stereo unspecified) reads 97 °C; that for `N[C@H](C(=O)O)c1ccc(F)cc1`, 300 °C; that for `COc1ccc(N/N=C2\C(=O)N(CO)N=C2C(F)(F)F)cc1`, 142 °C.
The result for `CC(C)(C)N(NC(=O)c1ccc(Cl)cc1)C(=O)c1ccccc1` reads 200 °C; that for `O=C(O)c1nn(Cc2ccc(Cl)cc2Cl)c2ccccc12`, 207 °C.
The result for `N#Cc1cccc(N=C=O)c1` reads 53 °C; that for `Cc1ccc(/C=C2/C=C(CC(C)C)OC2=O)o1`, 88 °C; that for `O=C(Cl)c1ccccc1Cl`, -4 °C.
`CCSc1nnc(NC(=O)C(C(F)(F)F)C(F)(F)F)s1` displayed a melting point of 159 °C.
The result for `C1=CCCC=C1` reads -89 °C.
Turning to `CCOCCN(Cc1ccc(CN(CCOCC)C(=O)C(Cl)Cl)cc1)C(=O)C(Cl)Cl`, the melting point stood at 140 °C.
The result for `COC(=O)C1=Cc2ccccc2C1C` (stereo unspecified) reads 32 °C; that for `Cc1cc(C(=O)O)cc(C)c1OCc1ccccc1`, 159 °C; that for `Cc1csc(C(=O)Cl)c1Cl`, 57 to 58 °C.
The result for `NC(=O)CSSCC(N)=O` reads 162 °C; that for `N#Cc1ncc(F)cc1F`, 32 °C; that for `Cc1ccc(C(=O)C=Cc2ccc(F)cc2)cc1`, 119 to 121 °C.
The result for `COC(=O)c1cscc1OC` reads 70 to 71 °C; that for `COc1cc(C2Nn3c(nnc3-c3ccc([N+](=O)[O-])cc3)S2)ccc1O` (stereo unspecified), 226 °C; that for `CC1=NN(c2ccccc2)C(=O)C1`, 129 °C.
Compound `c1ccc(-c2oc(-c3ccccc3)c3ccccc23)cc1` yielded a melting point of 135 °C.
The compound `COc1ccc(C=O)c(Cl)c1OC` returned a melting point of 71 to 72 °C.
The result for `O=[N+]([O-])c1ccc(Br)c([N+](=O)[O-])c1` reads 72 °C; that for `O=C(CCCl)NCc1ccccc1`, 94 °C.
The result for `C=CCCCCCCCCC(=O)OC` reads -27.5 °C; that for `Brc1cccs1`, -10 °C; that for `CCC1(O)CCC2C3CCC4=CC(=O)CCC4C3CCC21C` (stereo unspecified), 140 °C.
The result for `C/C=C/Br` reads -77 °C.
Compound `N#Cc1cccc(N2CCOCC2)n1` showed a melting point of 133 to 135 °C.
The compound `CCOC(=O)Nc1ccc2nn(C3CCCC3)nc2c1` showed a melting point of 122 °C.
For `O=c1[nH]n(C2C=CC3C4C=CC(C4)C32)c(=O)n1-c1ccccc1` (stereo unspecified), the melting point turned out to be 155 °C.
The result for `Cn1c(=O)c(C2=NNC(=O)C2=NNc2ccc([N+](=O)[O-])cc2)c(O)c2ccccc21` reads 300 °C; that for `CCOC(=O)/C(C#N)=C(/SC)N(C)C`, 90 to 94 °C.
The result for `CC(C)C1=CCC2C(=C1)CCC1C(C)(C(=O)O)CCCC21C` (stereo unspecified) reads 150 °C; that for `CCc1ccccc1C(=O)N(NC(=O)c1ccccc1)C(C)(C)C`, 178 °C.
The result for `C[C@@]12CCC=C1[C@@H]1CC[C@H]3CC(=O)CC[C@]3(C)[C@H]1CC2` reads 115 to 117 °C; that for `NNc1ncnc2scc(-c3ccccc3)c12`, 150 to 152 °C.
The compound `Cc1ccc(C(=O)O)o1` registered a melting point of 110 °C.
The result for `COc1ccc(NC(=O)/C(C)=N\NC(N)=O)cc1` reads 226 to 228 °C; that for `Cc1ccc(NC(N)=S)cc1`, 186 to 188 °C; that for `C1CC2CC1C1OC21` (stereo unspecified), 123 °C.
The result for `Cn1cc(Br)c(CO)n1` reads 94 to 95 °C; that for `O=[N+]([O-])c1c(Cl)cccc1Cl`, 72.5 °C; that for `CC(C)(C)c1cc2c(O)c(c1)Cc1cc(C(C)(C)C)cc(c1O)Cc1cc(C(C)(C)C)cc(c1O)Cc1cc(C(C)(C)C)cc(c1O)C2`, 300 °C.
The result for `O=C1OC(c2ccccc2)=NC1=Cc1ccc(-c2cccc([N+](=O)[O-])c2)o1` reads 144 to 145 °C.
In the case of `COP(=O)(OC)OC(=CCl)c1ccc(Cl)cc1Cl`, the melting point is 69.5 °C.
The result for `CC(=O)NC1CC=CCC(NC(C)=O)CC=CC1` (stereo unspecified) reads 267 to 277 °C.
The result for `Nc1ccc(Cl)cc1I` reads 40 to 42 °C; that for `CN(C)c1ccc(CO)cc1`, 69 °C.
The result for `CCCCCCOc1ccccc1C(N)=O` reads 71 °C; that for `O=C1CCCCC1C1CCCCC1` (stereo unspecified), -32 °C.
In turn, `CCCCCCCCc1ccc(NC(=O)c2ccc(C)cc2)cc1` gave a melting point of 113 °C.
The result for `Cc1cc(C)cc(P(c2cc(C)cc(C)c2)c2cc(C)cc(C)c2)c1` reads 160 to 162 °C; that for `N#Cc1ccc2c(c1)OCCO2`, 104 to 106 °C.
The result for `c1ccc2c(c1)Oc1nc3ccccc3nc1O2` reads 256 °C; that for `CCOC(=O)C1=NN(c2ccccc2)C(=O)C1CC1C(=O)N(c2ccccc2)N=C1C(=O)OCC` (stereo unspecified), 179 °C.
The result for `COc1ccc2cc(C(O)C(C)O)ccc2c1` (stereo unspecified) reads 115 °C; that for `COC(=O)c1ccccc1CC#N`, 48 °C.
`CCCCCCC(=O)OC` showed a melting point of -56 °C.
The result for `CC(CCC(=O)O)n1nc2ccccc2n1` (stereo unspecified) reads 73 °C; that for `Cc1ccc(-c2csc(/C(C#N)=N\Nc3cccc(C)c3)n2)cc1`, 132 °C.
The result for `CNc1nc(NC(C)C)nc(SC)n1` reads 85 °C; that for `CC1=NN(CN2CCCCC2)C(=O)/C1=N\Nc1cccc(O)c1`, 204 to 205 °C; that for `Cc1ccc(C2NC(=O)NC(c3ccc(C)cc3)C2(C#N)C(=O)c2ccccc2)cc1` (stereo unspecified), 234 to 235 °C.
Take `N#Cc1c(OCC(F)(F)F)cccc1OCC(F)(F)F`: the melting point came out at 116 °C.
The result for `FC(F)=C(F)C(F)=C(F)F` reads -132 °C; that for `Clc1ccc(I)cc1Cl`, 30 °C; that for `N#Cc1[nH]cnc2ncnc1-2`, 188 °C.
Turning to `CCC1Nc2cc(Cl)c(S(N)(=O)=O)cc2S(=O)(=O)N1` (stereo unspecified), the melting point is 270 °C.
The result for `C#CC1(O)CCC2C3CCc4cc(O)ccc4C3C(OC)CC21C` (stereo unspecified) reads 280 °C; that for `Nc1cnccc1Cl`, 61 °C; that for `Nc1cc2c(cc1C=Cc1ccccc1)CC(c1ccccc1)N2` (stereo unspecified), 163 °C.
Compound `OCCN1CCCCC1C(c1ccccc1)c1ccccc1` (stereo unspecified) had a melting point of 106 °C.
The result for `Cc1ccc(C(N)=S)cc1` reads 163 to 168 °C; that for `O=S(=O)(O)c1ccc2ccccc2c1`, 91 °C.
The result for `CN(C)C1CSSC1` reads 177 °C.
The result for `CCCCCC1CCCC1` reads -83 °C; that for `S=c1cn[nH]c(=S)[nH]1`, 209 to 210 °C; that for `CC(=O)NC(CCC(N)=O)C(=O)O` (stereo unspecified), 197 °C.
In the case of `CC(=O)OC1CCC2C3CCC4CC(=C(C)C)CCC4(C)C3CCC12C` (stereo unspecified), the melting point lay within 107 to 108 °C.
The result for `COc1cc(C(=O)c2ccc(Cl)cc2Cl)c([N+](=O)[O-])cc1OC` reads 114 °C.
`CC1(C)CCC(C)(C)c2cc(S(=O)(=O)Cl)ccc21` came in with a melting point of 78 to 80 °C.
The result for `O=Cc1cccc(-c2ncccn2)c1` reads 98 to 100 °C.
The result for `CC(=O)Nc1ccc(Br)c(F)c1` reads 151 °C.
In turn, `NC1CCCCCCC1` came in with a melting point of -48 °C.
The result for `O=S(=O)(CF)c1ccccc1` reads 53 °C; that for `FC(F)(F)c1cccc(CSc2nnc(S)s2)c1`, 140 to 142 °C.
The result for `Cc1c(C)c(CCl)c(C)c(C)c1CCl` reads 194 °C; that for `COc1cc([N+](=O)[O-])c(Cl)cc1NC(C)=O`, 185 °C.
The result for `S=c1cc[nH]c(=S)[nH]1` reads 279 to 281 °C.
Compound `N#Cc1ccc(N2N=N2)cc1` came in with a melting point of 70 °C.
The result for `S=P(N1CC1)(N1CC1)N1CC1` reads 54 to 57 °C.
The result for `O=C(Nc1ccc([N+](=O)[O-])cc1Br)C1(F)C(F)(F)C(F)(F)C(F)(F)C(F)(F)C1(F)F` reads 102 °C; that for `Nc1ccc(N=Nc2ccccc2)c(N)n1`, 139 °C.
The result for `Cc1ccc(NC(=S)Nc2ccc(C)cc2)cc1` reads 183 °C; that for `Cc1cc(C)c(C2(C)CC(C(=NNC(N)=O)c3cc4cc(Br)ccc4o3)C2)c(C)c1` (stereo unspecified), 230 to 232 °C; that for `O=C1CC(c2cccc(C3=NOC(=O)C3)c2)=NO1`, 190 °C.
For the compound `c1ccc2c(c1)-c1nc3ccccc3nc1-2`, the melting point was found to be 203 °C.
The result for `COc1ccc(-c2cn3c(n2)sc2ccccc23)cc1` reads 177 to 179 °C.

The record behind these values is a melting point compilation (Tetko et al.).
